Like-named read-outs stand apart in the source and are kept apart here.
Key:
MiaPaCa-2 Cell Line = experiment: Pancreatic cancer cell survival assay, MiaPaCa-2 (CellTiter-Glo); assay type: cell-based; conditions: 72 hrs incubation, read-out: Absolute IC50
Procedure: (§1) PANC-1 and MiaPaCa-2 were grown overnight at 37° C., 5% CO2 and 95% humidity. PANC-1 was grown in DMEM+10% FBS and MIA PaCa-2 was grown in DMEM+10% FBS+2.5% H. Cells from each cell line were then incubated for 72 hrs in humidified incubator at 37° C. and 5% CO2 with 5 m, AA6, metformin, or cisplatin at concentrations ranging from 100 μM-50 nM. Each condition was done in triplicate, and the structures of the compounds were not known to the experimenters. After the incubation, cells were lysed with CellTiter-Glo® Luminescent Cell Viability Assay reagent (Promega) and luminescence was read using an EnVision plate reader (PerkinElmer). Cell viability was plotted with GraphPad Prism version 5 and the IC50 was calculated for each compound with each cell line. The graphical curves were fitted using a nonlinear regression model with a sigmoidal dose response.

PANC-1 Cell Line = experiment: Pancreatic cancer cell survival assay, PANC-1 (CellTiter-Glo); assay type: cell-based; conditions: 72 hrs incubation, read-out: Absolute IC50
Procedure: as §1

HTC116 Cell Line = experiment: Colorectal cancer cell survival assay (CellTiter-Glo); assay type: cell-based; conditions: 72 hrs incubation
Procedure: HTC116 cells were grown overnight at 37° C., 5% CO2. Cells were then incubated for 72 hrs in humidified incubator at 37° C. and 5% CO2 with 5 m, AA6, metformin, S1QEL 1.1, or cisplatin at concentrations ranging from 100 μM-50 nM. Each condition was done in triplicate, and the structures of the compounds were not known to the experimenters. After the incubation, cells were lysed with CellTiter-Glo® Luminescent Cell Viability Assay reagent (Promega) and luminescence was read using an Envision plate reader.
The IC50s of 5 m, AA6, and cisplatin were similar with 5 m and AA6 having slightly lower IC50s. Metformin and S1Qel 1.1 had dramatically larger IC50s than 5 m, AA6, or cisplatin. Cell viability was plotted with GraphPad Prism version 5 and the IC50 was calculated for each compound. The graphical curves were fitted using a nonlinear regression model with a sigmoidal dose response.

[1] = Pharmacokinetic parameters in mice, IV and oral; assay type: in vivo, BALB/c mice; conditions: for Vd: BALB/c, iv
Procedure: Fed BALB/c mice were administered either 2 mg/kg of 5 m intravenously via the tail vein or 10 mg/kg of 5 m orally. For both conditions, 5 m was dissolved in 10% DMSO/50% PEG400/40% Water. Blood was sampled at various timepoints after the compound was administered and was analyzed using AB Sciex API 4000 LC/MS/MS in positive ion mode.

HCT116 cells = experiment: Hypoxic cancer cell survival assay, normoxic vs hypoxic (CellTiter-Glo); assay type: cell-based; conditions: for IC50: 72 hrs, read-out: Absolute IC50
Procedure: HCT116 cells were cultured in an atmosphere of 37° C., 5% CO2, 95% humidity, and with either 1% O2 (hypoxic) or 20% O2 (normoxic). No antibiotics were used in the cell culturing. HeLa cells were grown in parallel and samples were taken after 48 h and 72 h to confirm Hypoxia-inducible factor-1α (HIF-1α) expression by western blot.
HCT116 cells were then seeded on 6-well plates and incubated at 37° C., 5% CO2, and 95% humidity overnight. Cells previously cultured under hypoxic conditions were again incubated with 1% O2, and cells previously cultured under normoxic conditions were again incubated with 20% O2.
as §1, with “Hypoxic” for “PANC-1”, “normoxic cells” for “MiaPaCa-2 were grown overnight at 37° C., 5% CO2 and 95% humidity. PANC-1 was grown in DMEM+10% FBS and MIA PaCa-2 was grown in DMEM+10% FBS+2.5% H. Cells from each cell line”, “C., 5% CO2, 95% humidity,” for “C.”, “either 1% O2 (hypoxic) or 20% O2 (normoxic)” for “5% CO2”, “1 mM-50” for “100 μM-50”

[2] = mouse, blood, IV, 2 mg/kg, fed BALB/c mice, mean N = 3
[3] = mouse, blood, oral, 10 mg/kg, fed BALB/c mice, mean N = 3
[4] = HCT116, hypoxic conditions (1% O2)
[5] = Homo sapiens, HCT-116, 72 h, HCT116, hypoxic conditions (1% O2)

With `N/C(=N\C(=O)c1nc(Cl)c(NCc2ccc(I)cc2)nc1N)NCCCCc1ccccc1` [5m, (E)-3-amino-N-(amino((4-phenylbutyl)amino)methylene)-6-chloro-5-((4-iodobenzyl)amino)pyrazine-2-carboxamide] the IC50 (MiaPaCa-2 Cell Line) was 4.3 µM, the IC50 (MiaPaCa-2 Cell Line; Homo sapiens, MIA PaCa-2, 72 h) was < 6 µM and the IC50 (PANC-1 Cell Line) was 4.7 µM. For the same compound, the IC50 (PANC-1 Cell Line; Homo sapiens, PANC-1, 72 h) was < 6 µM, the IC50 (HTC116 Cell Line) was 3.2 µM and the “apparent abnormal symptoms or toxicity during the assay” value ([1]; 2 mg/kg intravenously or 10 mg/kg orally, BALB/c mice) was “did not result in any apparent abnormal symptoms or toxicity”. The Vd ([1]; mouse, blood, 2 mg/kg, IV, 2 mg/kg, fed BALB/c mice, mean N = 3, read-out: Vss) was 9.41 L/kg, the Vd ([1]; mouse, blood, 2 mg/kg, IV, 2 mg/kg, fed BALB/c mice, mean N = 3, read-out: Vz) was 17.5 L/kg and the “AUC Extr” value ([1]; IV, 2 mg/kg, fed BALB/c mice, mean N = 3) was 2.47%. The half-life ([1]; mouse, blood, IV, 2 mg/kg via tail vein, fed BALB/c mice, mean N = 3) was 5.3 h, the AUC(0-inf) [1, 2] was 871 ng·h/mL and the AUC(0-t) [1, 2] was 849 ng·h/mL. It also gave a C0 [1, 2] of 3870 ng/mL, an MRT inf [1, 2] of 4.1 h and a clearance [1, 2] of 38.4 mL/min/kg. The AUC(0-inf) [1, 3] was 41.5 ng·h/mL, the AUC(0-t) [1, 3] was 32.8 ng·h/mL and the CL/F [1, 3] was 4030 mL/min/kg. The Cmax [1, 3] was 18.3 ng/mL, the half-life [1, 3] was 3.62 h and the Vd/F ([1]; mouse, blood, oral, 10 mg/kg, fed BALB/c mice, mean N = 3, read-out: Vz/F) was 1270 L/kg. The F ([1]; oral 10 mg/kg vs IV 2 mg/kg, fed BALB/c mice, mean N = 3) was 0.773%, the IC50 (HCT116 cells; [4]) was 1.7 µM and the IC50 (HCT116 cells; HCT116, normoxic conditions (20% O2)) was 0.7 µM.
In the case of `CN(CCCCCCc1ccccc1)CCCCNC(=O)c1nc(Cl)c(NCc2ccc(Cl)cc2)nc1N` [AA6, 3-amino-6-chloro-5-((4-chlorobenzyl)amino)-N-(4-(methyl(6-phenylhexyl)amino)butyl)pyrazine-2-carboxamide], the IC50 (MiaPaCa-2 Cell Line) is reported as 5.1 µM, the IC50 (MiaPaCa-2 Cell Line; Homo sapiens, MIA PaCa-2, 72 h) is reported as < 6 µM and the IC50 (PANC-1 Cell Line) is reported as 5.9 µM. The IC50 (PANC-1 Cell Line; Homo sapiens, PANC-1, 72 h) was < 6 µM, the IC50 (HTC116 Cell Line) was 3.6 µM and the IC50 (HCT116 cells; [4]) was 5 µM. For the same compound, the IC50 (HCT116 cells; [5]) was < 6 µM.
`N.N.[Cl][Pt][Cl]` [Cisplatin, reference compound] gave an IC50 (MiaPaCa-2 Cell Line; listed as cisplatin) of 14.2 µM, an IC50 (MiaPaCa-2 Cell Line) of 12.2 µM and an IC50 (PANC-1 Cell Line; listed as cisplatin) of 12.2 µM. It also gave an IC50 (PANC-1 Cell Line) of 14.2 µM and an IC50 (HTC116 Cell Line) of 4.3 µM.
With `CN(C)C(=N)N=C(N)N` [Metformin, reference compound] the IC50 (MiaPaCa-2 Cell Line; Homo sapiens, MIA PaCa-2, 72 h) was > 5000 µM, the IC50 (PANC-1 Cell Line; Homo sapiens, PANC-1, 72 h) was > 5000 µM and the IC50 (HTC116 Cell Line) was > 100 µM. For the same compound, the dose response curve (HCT116 cells; HCT116, hypoxic conditions, concentrations up to 1 mM) was “failed to result in a recognizable dose response curve”, the IC50 (HCT116 cells; [5]) was > 1000 µM and the IC50 (HCT116 cells; Homo sapiens, HCT-116, 72 h, HCT116, normoxic conditions (20% O2)) was 71.8 µM.

— patent US11260054B2, “Methods of treatment of cancer” (Pano Therapeutics, Inc., priority 2018, dated 2022)
